Patent US10919935B2, “Antimicrobial peptide derived from myxinidin peptide and uses thereof” (INDUSTRY-ACADEMIC COOPERATION FOUNDATION, CHOSUN UNIVERSITY, priority 2015, dated 2021)
Residues, ends and D or L forms follow the SMILES beside them.

Columns and labels:
[1] = in vitro; assay type: cell-based; conditions: human, NHK cells (normal human keratinocytes)
Protocol: To determine the cytotoxicity of the peptide produced by the method of Example 1 in normal cell line, toxicity was measured by using NHK cells (Normal Human Keratinocyte cells).
Specifically, NHK cells which have been cultured in Epilife medium with 60 μM calcium (Gibco, USA) containing 10% HKGS (Human Keratinocyte Growth Supplement) (Gibco, USA) were aliquoted in a 96-well plate to have 1×10^4 cells per well. After culturing them for 24 hours, the cells were subjected to a treatment with myxinidin, myxinidin 1, myxinidin 2, or myxinidin 3 peptide, each at concentration of 3.125, 6.25, 12.5, or 25.0 μM/well, followed by reaction for 24 hours in a 5% CO2 incubator. After the culture, a reaction solution containing 5 mg/ml MTT (Thiazolyl Blue Tetrazolium Bromide) dissolved in physiological saline (PBS) was added in an amount of 20 μl to each well and allowed to react for 4 hours. After that, the supernatant was removed, and, by dissolving MTT crystals that are formed by adding 200 μl of DMSO, the absorbance at 560 nm was measured to determine the cell survival ability.

[2] = tested on: L. monocytogenes; test: MIC at salt concentration (Example 3); assay type: cell-based, Listeria monocytogenes
Protocol: (§1) To compare the antimicrobial activity of the peptide produced by the method of Example 1, the inventors of the present invention measured the minimum growth inhibitory concentration (MIC), which is minimum concentration of the peptide showing no dissociation of bacterial cells, at salt concentration.
(§2) Specifically, the bacterial strain described in the above Table 2 was cultured in each medium to a mid-log phase. Then, after dilution to bacterial cell concentration of 2×10^5 cells/100 μl, the cells were inoculated to a microtiter plate (NUNC, USA). Thereafter, myxinidin 1, myxinidin 2, or myxinidin 3 peptides which have been synthesized in Example 1 above was diluted, 1/2 times for each, with BSA+150 mM sodium chloride (NaCl) solution, physiological saline (PBS) solution, or 10 mM sodium phosphate (SP) solution in a 96-well plate. After adding the cells to a plate, the cells were cultured for 12 hours at 37° C. By using a microtiter plate reader (Merck Elisa reader, Germany), the absorbance was measured at a wavelength of 600 nm to determine the MIC value of each bacterial strain. As a control group, myxinidin as a mother peptide was subjected to the same processes as above and the MIC value of each bacterial strain was obtained.

[3] = tested on: S. aureus; test: MIC at salt concentration (Example 3); assay type: cell-based, Staphylococcus aureus
Protocol: as §1, §2

[4] = tested on: S. aureus 3709; test: MIC at salt concentration (Example 3); assay type: cell-based, Staphylococcus aureus
Protocol: as §1, §2

[5] = tested on: S. aureus 3114; test: MIC at salt concentration (Example 3); assay type: cell-based, Staphylococcus aureus
Protocol: as §1, §2

[6] = tested on: Pseudomonas aeruginosa ATCC 27853; assay type: cell-based
Protocol: (§3) To compare the antimicrobial activity of the peptide produced by the method of Example 1, the inventors of the present invention measured the growth minimum inhibitory concentration (MIC), which is minimum concentration of the peptide showing no dissociation of bacterial cells.
(§4) Specifically, the bacterial strain described in the following Table 2 was purchased and cultured in each medium to a mid-log phase. Then, after dilution to bacterial cell concentration of 2×10^5 cells/100 μl, the cells were inoculated to a microtiter plate (NUNC, USA). Thereafter, myxinidin 1, myxinidin 2, or myxinidin 3 peptides which have been synthesized in Example 1 above was diluted, 1/2 times for each, with BSA (bovine serum albumin) solution in a 96-well plate. After adding the cells to a plate, the cells were cultured for 12 hours at 37° C. By using a microtiter plate reader (Merck Elisa reader, Germany), the absorbance was measured at a wavelength of 600 nm to determine the MIC value of each bacterial strain. As a control group, myxinidin as a mother peptide was subjected to the same processes as above and the MIC value of each bacterial strain was obtained.

[7] = tested on: Escherichia coli CCARM 1229; assay type: cell-based
Protocol: as §3, §4

[8] = tested on: Escherichia coli CCARM 1238; assay type: cell-based
Protocol: as §3, §4

[9] = tested on: Pseudomonas aeruginosa Isolated strain 5018; assay type: cell-based
Protocol: as §3, §4

[10] = tested on: Pseudomonas aeruginosa Isolated strain 3592; assay type: cell-based
Protocol: as §3, §4

[11] = tested on: Staphylococcus aureus CCARM 3114; assay type: cell-based
Protocol: as §3, §4

[12] = tested on: Salmonella typhimurium KCTC 1926; assay type: cell-based
Protocol: as §3, §4

[13] = tested on: Salmonella typhimurium CCARM 8013; assay type: cell-based
Protocol: as §3, §4

[14] = tested on: Staphylococcus aureus ATCC 25923; assay type: cell-based
Protocol: as §3, §4

[15] = tested on: Listeria monocytogenes KCTC 3710; assay type: cell-based
Protocol: as §3, §4

[16] = tested on: Staphylococcus aureus CCARM 3709; assay type: cell-based
Protocol: as §3, §4

[17] = tested on: Escherichia coli ATCC 25922; assay type: cell-based
Protocol: as §3, §4

[18] = tested on: Salmonella typhimurium CCARM 8009; assay type: cell-based
Protocol: as §3, §4

[19] = tested on: P. aeruginosa 5018; test: MIC at salt concentration (Example 3); assay type: cell-based, Pseudomonas aeruginosa
Protocol: as §1, §2

[20] = tested on: P. aeruginosa; test: MIC at salt concentration (Example 3); assay type: cell-based, Pseudomonas aeruginosa
Protocol: as §1, §2

[21] = tested on: P. aeruginosa 3592; test: MIC at salt concentration (Example 3); assay type: cell-based, Pseudomonas aeruginosa
Protocol: as §1, §2

[22] = NaCl (BSA+150 mM sodium chloride)

SMILES | viability at 24 h, 3.125 µM [1] | viability at 24 h, 6.25 µM [1] | viability at 24 h, 12.5 µM [1] | viability at 24 h, 25 µM [1] | Antimicrobial activity (MIC) according to salt concentration [2, 22] | Antimicrobial activity (MIC) according to salt concentration ([2]; PBS) | Antimicrobial activity (MIC) according to salt concentration ([2]; SP (10 mM sodium phosphate)) | Antimicrobial activity (MIC) according to salt concentration [3, 22] | Antimicrobial activity (MIC) according to salt concentration ([3]; PBS) | Antimicrobial activity (MIC) according to salt concentration ([3]; SP (10 mM sodium phosphate)) | Antimicrobial activity (MIC) according to salt concentration [4, 22] | Antimicrobial activity (MIC) according to salt concentration ([4]; PBS) | Antimicrobial activity (MIC) according to salt concentration ([4]; SP (10 mM sodium phosphate)) | Antimicrobial activity (MIC) according to salt concentration [5, 22] | Antimicrobial activity (MIC) according to salt concentration ([5]; PBS) | Antimicrobial activity (MIC) according to salt concentration ([5]; SP (10 mM sodium phosphate)) | Minimum growth inhibitory concentration [6] | Minimum growth inhibitory concentration [7] | Minimum growth inhibitory concentration [8] | Minimum growth inhibitory concentration [9] | also measured
CC[C@H](C)[C@H](NC(=O)CN)C(=O)N[C@@H](Cc1c[nH]cn1)C(=O)N[C@@H](Cc1c[nH]cn1)C(=O)N[C@H](C(=O)N[C@@H](CC(C)C)C(=O)N[C@@H](CCCCN)C(=O)N[C@@H](Cc1ccc(O)cc1)C(=O)NCC(=O)N[C@@H](CCCCN)C(=O)N1CCC[C@H]1C(=O)N[C@@H](CO)C(N)=O)[C@@H](C)CC [Myxinidin 1, GIHHILKYGKPS-NH2] (H-GIHHILKYGKPS-NH2; N-terminus assumed) | 100% | 96% | 96% | 88% | >32 | >32 | >32 | >32 | >32 | >32 | >32 | >32 | >32 | >32 | >32 | >32 | >32 µM | >32 µM | >32 µM | >32 µM | Minimum growth inhibitory concentration [10]: >32 µM; Minimum growth inhibitory concentration [11]: >32 µM; Minimum growth inhibitory concentration [12]: >32 µM; Minimum growth inhibitory concentration [13]: >32 µM; Minimum growth inhibitory concentration [14]: >32 µM; Minimum growth inhibitory concentration [15]: >32 µM; Minimum growth inhibitory concentration [16]: >32 µM; Minimum growth inhibitory concentration [17]: >32 µM; Minimum growth inhibitory concentration [18]: >32 µM; Antimicrobial activity (MIC) according to salt concentration [19, 22]: >32; Antimicrobial activity (MIC) according to salt concentration ([19]; PBS): >32; Antimicrobial activity (MIC) according to salt concentration ([19]; SP (10 mM sodium phosphate)): >32; Antimicrobial activity (MIC) according to salt concentration [20, 22]: >32; Antimicrobial activity (MIC) according to salt concentration ([20]; PBS): >32; Antimicrobial activity (MIC) according to salt concentration ([20]; SP (10 mM sodium phosphate)): >32; Antimicrobial activity (MIC) according to salt concentration [21, 22]: >32; Antimicrobial activity (MIC) according to salt concentration ([21]; PBS): >32; Antimicrobial activity (MIC) according to salt concentration ([21]; SP (10 mM sodium phosphate)): >32
CC[C@H](C)[C@H](NC(=O)[C@H](Cc1c[nH]c2ccccc12)NC(=O)[C@H](CCCCN)NC(=O)[C@@H](NC(=O)[C@@H](N)CCCCN)[C@@H](C)CC)C(=O)N[C@@H](CC(C)C)C(=O)N[C@@H](CCCCN)C(=O)N[C@@H](Cc1ccc(O)cc1)C(=O)N[C@@H](Cc1c[nH]c2ccccc12)C(=O)N[C@@H](CCCCN)C(=O)N[C@@H](Cc1c[nH]c2ccccc12)C(=O)N[C@@H](CO)C(N)=O [Myxinidin 2, KIKWILKYWKWS-NH2] (H-KIKWILKYWKWS-NH2; N-terminus assumed) | 100% | 100% | 98% | 75% | 4 | 8 | 8 | 0.25 | 1 | 1 | 8 | 8 | 4 | >32 | 16 | 8 | 4 µM | 2 µM | 4 µM | 4 µM | Minimum growth inhibitory concentration [10]: 8 µM; Minimum growth inhibitory concentration [11]: 32 µM; Minimum growth inhibitory concentration [12]: 2 µM; Minimum growth inhibitory concentration [13]: 16 µM; Minimum growth inhibitory concentration [14]: 0.25 µM; Minimum growth inhibitory concentration [15]: 4 µM; Minimum growth inhibitory concentration [16]: 2 µM; Minimum growth inhibitory concentration [17]: 1 µM; Minimum growth inhibitory concentration [18]: 8 µM; Antimicrobial activity (MIC) according to salt concentration [19, 22]: 16; Antimicrobial activity (MIC) according to salt concentration ([19]; PBS): 4; Antimicrobial activity (MIC) according to salt concentration ([19]; SP (10 mM sodium phosphate)): 2; Antimicrobial activity (MIC) according to salt concentration [20, 22]: 8; Antimicrobial activity (MIC) according to salt concentration ([20]; PBS): 4; Antimicrobial activity (MIC) according to salt concentration ([20]; SP (10 mM sodium phosphate)): 8; Antimicrobial activity (MIC) according to salt concentration [21, 22]: 16; Antimicrobial activity (MIC) according to salt concentration ([21]; PBS): 8; Antimicrobial activity (MIC) according to salt concentration ([21]; SP (10 mM sodium phosphate)): 8
